Source: paper PMC3818835, “What Goes around Comes around-A Comparative Study of the Influence of Chemical Modifications on the Antimicrobial Properties of Small Cyclic Peptides” (Pharmaceuticals, 2013)
In brackets after ≈: the same amount, converted by molar mass. Numbered stars: 1 amine (or outer) side, 2 acyl side, 3 side chain; on linkers, the order of the positions; unused ones are H or OH. Square brackets hold non-standard residues; d marks the D form. Peptide text beside a SMILES is read from it. * marks the point of attachment. 6FAM = O=C1OC2(c3ccc(O)cc3Oc3cc(O)ccc32)c2cc(C(=O)*)ccc21; X1 = COc1ccc2c(CC(N[*:1])C(=O)[*:2])cc(=O)oc2c1; NBD = O=[N+]([O-])c1ccc(*)c2nonc12; X2 = O=c1cc(C*)c2cc(Br)c(O)cc2o1; Dap = NC[C@H](N)C(=O)O

Experiments:
[1] = tested on: human erythrocytes; type: cell-based; conditions: pH 7.4
Experimental: The lytic effect of selected peptides upon human erythrocytes was determined as described before. Briefly, cells were washed thoroughly in Tris buffer (10 mM Tris, 150 mM NaCl, pH 7.4). Suspensions with 2.5 × 10^8 cells/mL were incubated with peptides at a final concentration of 100 µM for 30 min at 37 °C. After centrifugation, 0.6% NH4OH was added to an aliquot of the supernatant and hemoglobin absorption (A) was measured at 540 nm (Jasco V-550). Whole cell suspensions exposed to NH4OH were used as positive control (A100%) and preparations without peptide served as negative control (A0%), respectively. Data were collected in three independent experiments.

[2] = tested on: B. subtilis DSM 347; type: cell-based; conditions: DSM 347, 18 h
Experimental: (§1) The minimal inhibitory concentration (MIC) of the cyclic hexapeptides was tested against Gram-negative E. coli DH5α and Gram-positive B. subtilis DSM 347 using a microdilution technique in 96 well microtiter plates as described previously. Briefly, cells from an overnight culture were inoculated 1:100 in LB medium, grown to mid log phase (OD600 0.4 ± 0.1) and adjusted to 5 × 10^5 cells/well. Final peptide concentrations ranged from 0.05 µM to 100 µM (2-fold dilutions) and were tested in triplicates in at least three independent experiments. The MIC was determined after 18 h of incubation at 37 °C, 180 rpm being the lowest peptide concentration at which no visible bacterial growth can be detected photometrically (A600, Safire Microplate Reader, Tecan, Männedorf, Germany).

[3] = tested on: E. coli DH5α; type: cell-based; conditions: 18 h
Experimental: as §1

[4] = Hydrophobicity: retention time tR by reversed phase HPLC; type: physicochemical; conditions: chromatographic, RP-HPLC ProntoSil 300-5-C18-H (250 × 4.6 mm, 5 µm); peptide 1 mg/mL in phase A (0.1% TFA in water); B 0.1% TFA in 80% acetonitrile; linear gradient 5%–95% B over 40 min at 22 °C; used as a measure of hydrophobicity
Experimental: The retention time tR of the cyclic hexapeptides was determined by HPLC on a Jasco LC-2000Plus using a ProntoSil 300-5-C18-H column (250 × 4.6 mm, 5 µm) (Bischoff Chromatography). Peptide concentration was 1 mg/mL in mobile phase A (0.1% TFA in deionized water), mobile phase B consisted of 0.1% TFA in 80% acetonitrile in deionized water. For chromatographic analyses a linear gradient of 5%–95% phase B over 40 min at 22 °C was applied.
To investigate the influence of fluorescent label modification and amino acid substitution on the hydrophobicity/amphipathicity of the cyclic hexapeptide derivatives, we determined the retention time tR by reversed phase HPLC (Figure 2). The method monitors the retention of compounds by the hydrophobic HPLC stationary phase. Differences in tR reflect differences in the effective hydrophobicity of the molecule which is related to the intrinsic hydrophobicity of the individual residues and their ability to form hydrophobic domains for interaction with the HPLC matrix. At the same time, hydrophilic residues will locate at the opposite side of the molecule. Reduction in the size or positioning of cationic residues next to the hydrophobic molecular surface area would reduce amphipathicity. tR-measurements have successfully been applied to characterize amphipathic helices, β-structured peptides and different sets of our small cyclic R-, W-rich peptides.

[5] = tested on: E. coli DH5α; experiment: Propidium iodide influx (membrane permeabilisation), flow cytometry; type: cell-based; conditions: FACS, PI 10 µg/mL, peptide at respective MIC, LB, 5 × 10^5 cells/mL, 0-90 min at 37 °C
Experimental: (§2) Membrane permeabilisation was determined by fluorescence activated cell sorting (FACS) on a FACSCalibur (Becton Dickinson) equipped with a 488 nm argon laser. Propidium iodide (PI, 10 µg/mL) and peptides at a final concentration corresponding to the respective MIC were dissolved in LB. Cells were grown to mid log phase (OD600 0.4 ± 0.1) and added to the solution just before the measurement at a concentration of 5 × 10^5 cells/mL. Cells were sorted on the basis of PI fluorescence which increases upon intercalation with DNA. This can only be observed in the case of disturbed membrane integrity as PI cannot translocate across intact lipid bilayers. Cell fluorescence was measured after incubation time points of 0, 5, 10, 15, 20, 30, 60 and 90 min at 37 °C, 180 rpm. A minimum of 20,000 cells was recorded for each preparation. CellQuest^TM Pro software (Becton Dickinson) was used for data acquisition and results were analyzed with FCS Express V3 (De Novo Software, Los Angeles, CA, USA).

[6] = tested on: B. subtilis DSM 347; experiment: as above; type: cell-based; conditions: FACS, PI 10 µg/mL, peptide at respective MIC, LB, 5 × 10^5 cells/mL, 0-90 min at 37 °C
Experimental: as §2

[7] = tested on: E. coli DH5α; conditions: 5 µM, PI influx; cited from earlier work
Experimental: Figure 4 Bacterial membrane permeabilisation determined with flow cytometry using propidium iodide (PI). PI influx after incubation with cWFW, fluorescent-labeled and K-substituted cyclic hexapeptides was tested into B. subtilis DSM 347 (A,C) and E. coli DH5α (B,D) at respective MICs. […] Preparations without peptide were used as negative co ...

Row | Compound | Hemolysis at 100 µM [1] | MIC B. subtilis DSM 347 [2] | MIC E. coli DH5α [3] | Retention Time tR [4] | PI influx / membrane permeabilisation, E. coli [5] | PI influx / membrane permeabilisation, B. subtilis [6] | Membrane permeabilising potential, Gram-negative cells (positive control) [7]
1 | NCCCC[C@@H]1NC(=O)[C@H](CCCCN)NC(=O)[C@H](Cc2c[nH]c3ccccc23)NC(=O)[C@H](Cc2ccccc2)NC(=O)[C@H](Cc2c[nH]c3ccccc23)NC(=O)[C@H](CCCCN)NC1=O [cKKK] (cyclo(KKKWFW)) | 8% | 50 µM (≈ 45.2 µg/mL) | 100 µM (≈ 90.4 µg/mL) | 17.70 min |  |  | 
2 | N=C(N)NCCC[C@@H]1NC(=O)[C@H](CCCCN)NC(=O)[C@H](CCCCN)NC(=O)[C@H](Cc2c[nH]c3ccccc23)NC(=O)[C@H](Cc2ccccc2)NC(=O)[C@H](Cc2c[nH]c3ccccc23)NC1=O [cKKR] (cyclo(KKRWFW)) | 3% | 25 µM (≈ 23.3 µg/mL) | 100 µM (≈ 93.2 µg/mL) | 17.86 min |  |  | 
3 | N=C(N)NCCC[C@@H]1NC(=O)[C@H](CCCCN)NC(=O)[C@H](Cc2c[nH]c3ccccc23)NC(=O)[C@H](Cc2ccccc2)NC(=O)[C@H](Cc2c[nH]c3ccccc23)NC(=O)[C@H](CCCCN)NC1=O [cKRK] (cyclo(KRKWFW)) | 2% | 25 µM (≈ 23.3 µg/mL) | 12 µM (≈ 11.2 µg/mL) | 17.27 min |  |  | 
4 | COc1ccc2c(CC3NC(=O)[C@H](Cc4c[nH]c5ccccc45)NC(=O)[C@H](CCCCN)NC(=O)[C@H](CCCNC(=N)N)NC(=O)[C@H](CCCCN)NC(=O)[C@H](Cc4c[nH]c5ccccc45)NC3=O)cc(=O)oc2c1 (stereo partly drawn) [cR2[Cu]] (cyclo(KRKW[X1]W)) | 4% | 6 µM (≈ 6.18 µg/mL) | 50 µM (≈ 51.5 µg/mL) | 17.20 min | pronounced membrane disruption |  | 
5 | N=C(N)NCCC[C@@H]1NC(=O)[C@H](CCCCN)NC(=O)[C@H](Cc2c[nH]c3ccccc23)NC(=O)[C@H](CNc2ccc([N+](=O)[O-])c3nonc23)NC(=O)[C@H](Cc2c[nH]c3ccccc23)NC(=O)[C@H](CCCCN)NC1=O [cR2[NBD]] (cyclo(KRKW[Dap](NBD)W)) | 26% | 12 µM (≈ 12.4 µg/mL) | 50 µM (≈ 51.7 µg/mL) | 17.47 min | No E. coli membrane permeabilisation could be detected |  | 
6 | N=C(N)NCCC[C@@H]1NC(=O)[C@H](CCCCN)NC(=O)[C@H](Cc2c[nH]c3ccccc23)NC(=O)[C@H](CSCc2cc(=O)oc3cc(O)c(Br)cc23)NC(=O)[C@H](Cc2c[nH]c3ccccc23)NC(=O)[C@H](CCCCN)NC1=O [cR2[S-Cu]] (cyclo(KRKWC(X2)W)) | 5% | 25 µM (≈ 28.5 µg/mL) | 50 µM (≈ 57.1 µg/mL) | 17.49 min |  |  | 
7 | N=C(N)NCCC[C@@H]1NC(=O)[C@H](Cc2c[nH]c3ccccc23)NC(=O)[C@H](Cc2ccccc2)NC(=O)[C@H](Cc2c[nH]c3ccccc23)NC(=O)[C@H](CCCCN)NC(=O)[C@H](CCCCN)NC1=O [cRKK] (cyclo(RKKWFW)) | 56% | 25 µM (≈ 23.3 µg/mL) | 50 µM (≈ 46.6 µg/mL) | 18.38 min |  |  | 
8 | N=C(N)NCCC[C@@H]1NC(=O)[C@H](CCCCN)NC(=O)[C@H](CCCNC(=N)N)NC(=O)[C@H](Cc2c[nH]c3ccccc23)NC(=O)[C@H](Cc2ccccc2)NC(=O)[C@H](Cc2c[nH]c3ccccc23)NC1=O [cRKR] (cyclo(RKRWFW)) | 4% | 12 µM (≈ 11.5 µg/mL) | 50 µM (≈ 48 µg/mL) | 18.60 min |  |  | 
9 | N=C(N)NCCC[C@@H]1NC(=O)[C@H](CCCNC(=N)N)NC(=O)[C@H](CCCCNC(=O)c2ccc3c(c2)C2(OC3=O)c3ccc(O)cc3Oc3cc(O)ccc32)NC(=O)[C@H](Cc2c[nH]c3ccccc23)NC(=O)[C@H](Cc2c[nH]c3ccccc23)NC(=O)[C@H](CCCNC(=N)N)NC1=O [cW2[Fluos]] (cyclo(RRRWWK(6FAM))) | 9% | >100 µM | >100 µM | 19.28 min |  |  | 
10 | N=C(N)NCCC[C@@H]1NC(=O)[C@H](CCCCNC(=O)c2ccc3c(c2)C2(OC3=O)c3ccc(O)cc3Oc3cc(O)ccc32)NC(=O)[C@H](Cc2c[nH]c3ccccc23)NC(=O)[C@H](Cc2c[nH]c3ccccc23)NC(=O)[C@H](Cc2c[nH]c3ccccc23)NC(=O)[C@H](CCCNC(=N)N)NC1=O [cW3[Fluos]] (cyclo(RRWWWK(6FAM))) | 2% | >100 µM | >100 µM | 22.08 min |  |  | 
11 | COc1ccc2c(CC3NC(=O)[C@H](Cc4c[nH]c5ccccc45)NC(=O)[C@H](CCCNC(=N)N)NC(=O)[C@H](CCCNC(=N)N)NC(=O)[C@H](CCCNC(=N)N)NC(=O)[C@H](Cc4c[nH]c5ccccc45)NC3=O)cc(=O)oc2c1 (stereo partly drawn) [cW[Cu]W] (cyclo(RRRW[X1]W)) | 23% | 6 µM (≈ 6.52 µg/mL) | 25 µM (≈ 27.2 µg/mL) | 18.40 min | pronounced membrane disruption | slightly higher | 
12 | N=C(N)NCCC[C@@H]1NC(=O)[C@H](CCCNC(=N)N)NC(=O)[C@H](Cc2c[nH]c3ccccc23)NC(=O)[C@H](CNc2ccc([N+](=O)[O-])c3nonc23)NC(=O)[C@H](Cc2c[nH]c3ccccc23)NC(=O)[C@H](CCCNC(=N)N)NC1=O [cW[NBD]W] (cyclo(RRRW[Dap](NBD)W)) | 76% | 25 µM (≈ 27.3 µg/mL) | 50 µM (≈ 54.5 µg/mL) | 17.90 min | pronounced membrane disruption |  | 
13 | N=C(N)NCCC[C@@H]1NC(=O)[C@H](CCCNC(=N)N)NC(=O)[C@H](Cc2c[nH]c3ccccc23)NC(=O)[C@H](CSCc2cc(=O)oc3cc(O)c(Br)cc23)NC(=O)[C@H](Cc2c[nH]c3ccccc23)NC(=O)[C@H](CCCNC(=N)N)NC1=O [cW[S-Cu]W] (cyclo(RRRWC(X2)W)) | 76% | 6 µM (≈ 7.18 µg/mL) | 25 µM (≈ 29.9 µg/mL) | 18.91 min | pronounced membrane disruption | slightly higher | 
14 | polymyxin B |  |  |  |  |  |  | high membrane permeabilising potential
